Measurements reported in publication PMC7580722, “Design of new disubstituted imidazo[1,2-b]pyridazine derivatives as selective Haspin inhibitors. Synthesis, binding mode and anticancer biological evaluation” (Journal of Enzyme Inhibition and Medicinal Chemistry, 2020).
Where two headings read alike, the source gives them in different places.

How the values were obtained:
[1] = tested on: Haspin; design: method as in PMID 23071153, PMID 23071152, PMID 21804608, PMID 19734450, PMID 18978305; conditions: Figure 1, known Haspin inhibitors; cited from earlier work
[2] = target: T1, HsHaspin (Homo sapiens, UniProt Q8TF76); test: Recombinant Haspin kinase assay ([γ-33P]ATP, 15 µM ATP; some values ADP-Glo); format: biochemical; conditions: for IC50 / Haspin inhibitory activity (in words): recombinant HsHaspin; for IC50: in vitro
T1 construct: aa470-798; made in house; host or cells: E. coli
T1 sequence (Q8TF76 470-798): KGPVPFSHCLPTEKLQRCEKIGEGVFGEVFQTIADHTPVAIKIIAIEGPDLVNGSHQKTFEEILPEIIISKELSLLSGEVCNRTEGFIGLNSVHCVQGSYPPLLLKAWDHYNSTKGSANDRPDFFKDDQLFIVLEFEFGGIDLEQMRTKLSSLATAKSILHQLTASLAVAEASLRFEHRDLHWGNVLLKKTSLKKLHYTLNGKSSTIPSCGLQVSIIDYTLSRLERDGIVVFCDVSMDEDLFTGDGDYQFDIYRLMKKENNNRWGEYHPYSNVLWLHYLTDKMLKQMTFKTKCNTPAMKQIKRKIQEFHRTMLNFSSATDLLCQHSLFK
Method: (§1) Values are IC50 expressed in µM and calculated from dose–response curves (each point on the curves was performed in triplicate). Selectivity indexes (SI; in brackets) are calculated as follows: SI = IC50 kinase X/IC50 Haspin. ND: not determined. *IC50 values obtained using the ADP-Glo methodology (see Experimental section, Supplementary Material). […]
(§2) A, HsCdk9/Cyclin T). Native SscCK1δ /ε and SscGSK3α/β were purified from pig brain whereas HsPlk1, HsCdk1 and HsAurora B were purchased from ProQinase and SignalChem respectively. Kinase assays were performed in […]
(§3) mCi/ml; PerkinElmer) in a final volume of 30 µl as previously reported 51. After 30 min incubation at 30°C, the reaction mix was spotted onto GE healthcare P81 phosphocellulose paper using a FilterMate Harvester (PerkinElmer), and the filter was extensively washed with a 1% phosphoric acid solution. The wet filter-bound radioactivity was determined in the presence of 20 µl scintillation fluid (GE healthcare) with a TopCount® Scintillation and Luminescence Counter (PerkinElmer). IC50 values were calculated from dose-response curves […]
(§4) Kinase activities using the ADP-Glo methodology (ADP-Glo Kinase Assay; Promega) were assayed according to the assay described in Nguyen et al. 52 and Ibrahim et al. 53. […]

[3] = tested on: U-2 OS; test: Cell viability, monolayer (2D), MTS assay; format: cell-based; conditions: Homo sapiens, U2OS, 48 h
[4] = target: T2, HsPLK1 (Homo sapiens, UniProt P53350); test: PLK1 kinase assay; format: biochemical; conditions: Table 4
T2 construct: purchased ProQinase
Method: . We therefore tested our compounds on two obvious candidates, HsCDK1 and HsPLK1 (Polo-like_kinase 1) both required for mitotic entry[50] (Table 4).
(§5) Values are IC50 expressed in µM and calculated from dose–response curves (each point from the curves was performed in duplicate). NR: not relevant. […]
(§6) Recombinant protein kinases were expressed and purified from E. coli (HsHaspin kinase domain aa470-798, HsCdk5/p25, RnDYRK1A kinase domain aa1-499, HsPIM1, MmCLK1) or baculovirus/Sf9 cells (HsCdk2/Cyclin A, HsCdk9/Cyclin T). Native SscCK1δ /ε and SscGSK3α/β were purified from pig brain whereas HsPlk1, HsCdk1 and HsAurora B were purchased from ProQinase and SignalChem respectively. Kinase assays were performed in specific buffers and substrates for each kinase tested in the presence of 15 µM [γ-33P] ATP (3,000 Ci/mmol, 10 mCi/ml; PerkinElmer) in a final volume of 30 µl as previously reported 51. After 30 min incubation at 30°C, the reaction mix was spotted onto GE healthcare P81 phosphocellulose paper using a FilterMate Harvester (PerkinElmer), and the filter was extensively washed with a 1% phosphoric acid solution. The wet filter-bound radioactivity was determined in the presence of 20 µl scintillation fluid (GE healthcare) with a TopCount® Scintillation and Luminescence Counter (PerkinElmer). IC50 values were calculated from dose-response curves

[5] = tested on: Haspin activity (H3T3ph) in U-2 OS cells; test: In-cell Haspin activity, H3T3ph immunofluorescence; format: cell-based, human; conditions: 24 h; for H3T3ph signal remaining in prometaphase cells (% of ctrl): 0.5 µM
[6] = tested on: HCT116; test: Cell viability, monolayer (2D), MTS assay; format: cell-based; conditions: Homo sapiens, HCT-116, 48 h
[7] = tested on: HBL100; test: Cell viability, monolayer (2D), MTS assay; format: cell-based; conditions: Homo sapiens, HBL-100, 48 h
[8] = target: T3, HsCDK1 (Homo sapiens, UniProt P06493); test: CDK1 kinase assay; format: biochemical; conditions: for SI CDK1/Haspin: SI = IC50 CDK1/IC50 Haspin; for IC50: Table 4, read-out: IC50 HsCDK1
T3 construct: purchased ProQinase
Method: We therefore tested our compounds on two obvious candidates, HsCDK1 and HsPLK1 (Polo-like_kinase 1) both required for mitotic entry[50]
as §5, §6

[9] = tested on: U-2 OS spheroids; test: Spheroid (3D) viability, CellTiter-Glo; format: cell-based, human; conditions: 5 µM; for viability at 5 µM: Homo sapiens, U2OS
[10] = target: T4, HsAurora B (Homo sapiens, UniProt Q96GD4); test: Aurora B kinase assay; format: biochemical
T4 construct: purchased SignalChem
Method: as §1
as §6, with “curves […]” for “curves”
as §4

[11] = tested on: U-2 OS cells; test: Cell cycle analysis by flow cytometry (propidium iodide); conditions: 2.5 µM, 24 h, U-2 OS
[12] = tested on: SH-SY5Y; test: Cell viability, monolayer (2D), MTS assay; format: cell-based; conditions: Homo sapiens, 48 h
[13] = tested on: U-2 OS cells; test: Scratch wound cell migration assay (IncuCyte); format: cell-based, human; conditions: 0.6 µM, 0.5% FBS, normalised against DMSO control (100%)
[14] = tested on: HBL100 spheroids; test: Spheroid (3D) viability, CellTiter-Glo; format: cell-based, human; conditions: Figure 4(A)
[15] = tested on: HCT116 spheroids; test: Spheroid (3D) viability, CellTiter-Glo; format: cell-based, human; conditions: 5 µM, 10 days, Figure 4(A)
[16] = tested on: RPE-1; test: Cell viability, monolayer (2D), MTS assay; format: cell-based; conditions: Homo sapiens, 48 h
[17] = target: T5, HsCdk2/Cyclin A (Homo sapiens, UniProt P24941); test: CDK2 kinase assay; format: biochemical; conditions: read-out: IC50 CDK2
T5 construct: made in house; host or cells: baculovirus/Sf9 cells
Method: as §1, §2, §3, §4

T3 sequence (P06493 whole entry): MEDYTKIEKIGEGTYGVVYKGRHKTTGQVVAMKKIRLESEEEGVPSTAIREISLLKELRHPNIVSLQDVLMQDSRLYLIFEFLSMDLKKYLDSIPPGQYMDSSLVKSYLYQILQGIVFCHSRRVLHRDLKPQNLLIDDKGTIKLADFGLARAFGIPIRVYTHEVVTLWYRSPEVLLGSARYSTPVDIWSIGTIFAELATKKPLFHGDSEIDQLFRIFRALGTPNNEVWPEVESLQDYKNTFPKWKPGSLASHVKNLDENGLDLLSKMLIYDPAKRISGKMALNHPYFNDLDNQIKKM
T3 sequence (P14635 whole entry partner): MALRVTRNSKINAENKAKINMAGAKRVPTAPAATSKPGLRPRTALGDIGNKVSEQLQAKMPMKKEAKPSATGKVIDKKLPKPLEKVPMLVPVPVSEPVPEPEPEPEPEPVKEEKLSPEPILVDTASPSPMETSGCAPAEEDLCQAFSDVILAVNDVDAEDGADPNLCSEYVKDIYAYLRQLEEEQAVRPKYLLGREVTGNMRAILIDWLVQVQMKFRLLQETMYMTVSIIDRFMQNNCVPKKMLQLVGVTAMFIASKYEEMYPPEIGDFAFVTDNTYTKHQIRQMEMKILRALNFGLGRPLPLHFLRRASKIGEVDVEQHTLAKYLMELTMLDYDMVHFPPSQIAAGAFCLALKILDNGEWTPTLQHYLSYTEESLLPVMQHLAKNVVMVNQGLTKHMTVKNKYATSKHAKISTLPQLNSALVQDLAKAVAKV
T4 sequence (Q96GD4 whole entry): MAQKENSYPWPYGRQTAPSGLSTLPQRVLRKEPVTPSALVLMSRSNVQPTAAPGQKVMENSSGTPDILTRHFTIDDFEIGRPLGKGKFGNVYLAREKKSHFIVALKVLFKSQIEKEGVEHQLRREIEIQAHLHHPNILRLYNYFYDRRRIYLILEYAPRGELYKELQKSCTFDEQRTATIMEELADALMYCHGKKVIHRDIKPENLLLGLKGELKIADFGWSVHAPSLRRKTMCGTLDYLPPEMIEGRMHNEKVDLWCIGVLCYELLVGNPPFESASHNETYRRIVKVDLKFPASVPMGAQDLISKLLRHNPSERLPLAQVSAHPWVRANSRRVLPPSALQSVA
T2 sequence (P53350 whole entry): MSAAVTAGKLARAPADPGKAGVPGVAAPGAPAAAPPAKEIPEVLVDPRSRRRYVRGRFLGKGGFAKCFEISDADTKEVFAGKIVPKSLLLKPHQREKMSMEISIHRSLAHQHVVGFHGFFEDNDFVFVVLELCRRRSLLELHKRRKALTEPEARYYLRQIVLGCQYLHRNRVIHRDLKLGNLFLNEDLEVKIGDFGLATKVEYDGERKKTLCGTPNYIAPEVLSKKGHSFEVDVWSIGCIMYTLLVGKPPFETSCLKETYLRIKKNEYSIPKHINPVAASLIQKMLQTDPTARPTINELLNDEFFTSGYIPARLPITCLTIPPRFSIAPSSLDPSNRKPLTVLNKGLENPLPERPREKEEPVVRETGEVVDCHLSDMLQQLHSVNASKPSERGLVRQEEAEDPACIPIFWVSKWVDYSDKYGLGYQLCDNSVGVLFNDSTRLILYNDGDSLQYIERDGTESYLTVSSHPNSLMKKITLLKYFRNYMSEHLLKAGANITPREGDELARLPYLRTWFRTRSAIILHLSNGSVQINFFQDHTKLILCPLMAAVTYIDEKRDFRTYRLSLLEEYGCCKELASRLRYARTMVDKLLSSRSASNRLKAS

c1cc2[nH]ncc2cc1-c1cnc2ccc(NC3CCCC3)nn12 [Compound 9]
melting point: 195 to 197 °C
IC50 [2]: 0.031 µM

c1cc2[nH]ncc2cc1-c1cnc2ccc(NC3CCCCC3)nn12 [Compound 10]
melting point: 240 to 242 °C

c1cc2[nH]ncc2cc1-c1cnc2ccc(N3CCCCC3)nn12 [Compound 11]
melting point: 231 to 233 °C

CCCOc1ccc2ncc(-c3ccc4[nH]ncc4c3)n2n1 [Compound 13]
melting point: 198 to 200 °C

CCOc1ccc2ncc(-c3ccc4[nH]ncc4c3)n2n1 [Compound 14]
melting point: 205 to 207 °C
EC50 [3]: 2.8 µM
average SI ([2]; average selectivity index over the protein kinases tested vs Haspin): 23.6
IC50 [2]: 0.069 µM
IC50 [4]: > 10 µM
H3T3ph signal remaining in prometaphase cells (% of ctrl) [5]: 11.9%
EC50 [6]: 1.7 µM
EC50 [7]: 9.5 µM
SI CDK1/Haspin [8]: 11.5
IC50 [8]: 0.795 µM
viability at 5 µM ([9]; 48 h, 2 days, Figure 4(B), read-out: U-2 OS spheroid remaining viability): 6.9%
viability at 5 µM ([9]; 240 h, 10 days, Figure 4(A), read-out: U-2 OS spheroid viability (% of DMSO control)): 5%
viability at 5 µM ([9]; 48 h, Figure 4(A), read-out: U-2 OS spheroid viability (% of DMSO control)): 33%
Aurora B inhibition (in words) [10]: did not inhibit Aurora B kinase
cells in G2/M phase (% of cell total population) ([11]; DMSO control 12.8%): 24.4%
cells in S phase (% of cell total population) ([11]; DMSO control 51.9%): 45.2%
EC50 [12]: > 10 µM
normalised wound closure after 24 h [13]: 73%
HBL100 spheroid viability ([14]; 5 µM, 10 days): remained mostly unresponsive
viability at 5 µM ([14]; Homo sapiens, HBL-100, 48 h, read-out: HBL-100 spheroid viability (% of DMSO control)): 73%
HCT116 spheroid viability [15]: remained mostly unresponsive
EC50 [16]: 3.7 µM

c1cc2[nH]ncc2cc1-c1cnc2ccc(OC[C@H]3CNCCO3)nn12 [Compound 22]
EC50 [3]: 8.6 µM
IC50 [2]: 0.012 µM
IC50 [4]: > 10 µM
H3T3ph signal remaining in prometaphase cells (% of ctrl) [5]: 10.7%
inhibition at 0.05 µM ([5]; Homo sapiens, U2OS, 0.05 µM, read-out: inhibition of cellular Haspin activity): > 80%
EC50 [6]: > 10 µM
EC50 [7]: > 10 µM
SI CDK1/Haspin [8]: 239
IC50 [8]: 2.87 µM
IC50 [17]: 5.3 µM
U-2 OS spheroid remaining viability ([9]; 2 days, Figure 4(B)): no effects
EC50 [12]: > 10 µM
normalised wound closure after 24 h [13]: around 100%
EC50 [16]: 6 µM

c1cc2[nH]ncc2cc1-c1cnc2ccc(OC[C@@H]3COCCN3)nn12 [Compound 23]
IC50 [2]: 0.025 µM

c1cc2[nH]ncc2cc1-c1cnc2ccc(OC[C@H]3COCCN3)nn12 [Compound 24]
IC50 [2]: 0.02 µM

c1cc2[nH]ncc2cc1-c1cnc2ccc(OCC3CCCN3)nn12 (stereo not shown) [Compound 25]
Haspin inhibitory activity (in words) [2]: very active

c1cc2[nH]ncc2cc1-c1cnc2ccc(OCC3CCCN3)nn12 (stereo not shown) [Compound 26]
Haspin inhibitory activity (in words) [2]: very active

CCCNc1ccc2ncc(-c3cnc(N)nc3)n2n1 [Compound 28, 3-(2-Aminopyrimidin-5-yl)-6-(propylamino)imidazo[1,2-b]pyridazine]
Aurora B inhibition at 10 µM (in words) [10]: did not affect this enzyme at 10 µM

CCCNc1ccc2ncc(-c3cccc4ccccc34)n2n1 [Compound 29, 3-(Naphthalen-1-yl)-N-propylimidazo[1,2-b]pyridazin-6-amine]
EC50 [3]: > 10 µM
IC50 [4]: > 10 µM
EC50 [6]: > 10 µM
EC50 [7]: > 10 µM
IC50 [8]: > 10 µM
EC50 [12]: > 10 µM
normalised wound closure after 24 h [13]: around 100%
EC50 [16]: > 10 µM

c1cnn2c(-c3ccc4[nH]ncc4c3)cnc2c1 [Compound 30, 3-(1H-Indazol-5-yl)imidazo[1,2-b]pyridazine]
Haspin inhibitory activity (in words) [2]: lost their activity for Haspin
Aurora B inhibition at 10 µM (in words) [10]: did not affect this enzyme at 10 µM

COc1ccc2c(c1)[nH]c1c(C)nccc12 [Harmine]
IC50 [1]: 0.59 µM

COc1ccc2c3ccnc(C(F)(F)F)c3n(CCCCN)c2c1 [LDN-211898]
IC50 [1]: 0.1 µM

CN1CCC(CNc2ccc3ncc(-c4cccc(OC(F)(F)F)c4)n3n2)CC1 [SGI-1776]
IC50 [1]: 0.034 µM
